Laboratory results taken from US20240150297A1, “NOVEL COMPOUNDS COMPRISING A NEW CLASS OF TRANSTHYRETIN LIGANDS FOR TREATMENT OF COMMON AGE-RELATED COMORBIDITIES” (The Trustees of Columbia University in the City of New York, priority 2021, published 2024).
Where two headings read alike, the source gives them in different places. One block for each molecule: values may come before it.

Legend:
[1] = biological target: native RBP4 purified from human urine (Homo sapiens (Human), UniProt P02753); test: RBP4 scintillation proximity (SPA) binding assay; details: read-out: RBP4 SPA IC50; fixed 10 nM 3H-retinol
[2] = 441 ATTR-CM patients; cited from earlier work
[3] = biological target: human TTR (Homo sapiens (Human), UniProt P02766); test: Low pH-induced TTR aggregation assay (SDS-PAGE/Western blot); assay type: biochemical; details: 50 μM compound, pH 4.0, 72 h, 37° C.
Protocol: FIG. 5. […]. Bar graphs represent pixel volume means±S.D. of the scanned bands on the immunoblots in arbitrary units for TTR high-molecular-weight aggregates (B), dimers (C), and monomers (D). Statistical significance was determined by one-way ANOVA with Holm-Sidak post hoc test; *, p≤0.05**, p≤0.01***, p≤0.001; ****, p≤0.0001 compared to TTR aggregation+DMSO group (pH4.0) *, p=0.05, **, p≤0.01; ***, p≤0.001; ****, […] compare to TTR without aggregation group (pH=7.5).
The ability of test compounds to prevent TTR aggregation was evaluated under the acidic conditions that favor TTR aggregation and fibril formation. […] At the end of the incubation, 3.5 μl 500 mM sodium phosphate (Sigma #S5136) buffer (pH=8.0) was added to each sample for neutralization and 0.6 μl 5% CHAPS (Sigma #C5070) as a detergent to prevent reassociation of protein. The cross-linking was performed by adding 1.5 μl 5% glutaraldehyde solution (Sigma# G6257). After 4 min, the reaction was stopped by the addition of 2.5 μl freshly made 5% NaBH4. […] Band intensity for TTR monomer and TTR aggregates was quantified from scanned images of the blots.
The ability of TTR ligands to act as kinetic stabilizers of TTR tetramers was assessed in vitro using a low pH-induced TTR aggregation SDS-PAGE assay (Coelho, T. et al. 2016; Cruz, M. W. 2019). […]

[4] = Kinetic solubility assay; assay type: physicochemical; details: PBS pH 7.4
[5] = biological target: TTR isolated from human plasma (Homo sapiens (Human), UniProt P02766); test: Fluorescence polarization TTR tetramer binding assay; details: fixed 25 μM FITC-coupled TTR FP probe
[6] = tested on: serum RBP4; test: Serum RBP4 measurement after single oral dose in mice (PK-PD); assay type: in vivo, mouse
Protocol: FIG. 6. Pharmacokinetic and pharmacodynamic properties of 18a in mice. […]. Data are presented as means±SD. Three mice per treatment group were used in the PK-PD study.
Blood samples were collected from a tail vein. Whole blood was drawn into a centrifuge tube and was allowed to clot at room temperature for 30 minutes followed by centrifugation at 2000 g for 15 minutes at […] to collect serum. […] Whole blood was drawn into a centrifuge tube and was allowed to clot at room temperature for 30 min followed by centrifugation at 2000 g for 15 min at +4° C to collect serum.
There was no effect of compound dosing on serum TTR levels (data not shown). […].

[7] = CD-1 mice
[8] = biological target: CYP2C19 (Homo sapiens (Human), UniProt P33261); test: CYP450 inhibition assay, CYP2C19; assay type: in vitro ADME; details: pH 7.4, read-out: CYP Inhibition (% Inhibition at 10 μm) 2C19
CYP2C19, sequence (P33261 whole entry): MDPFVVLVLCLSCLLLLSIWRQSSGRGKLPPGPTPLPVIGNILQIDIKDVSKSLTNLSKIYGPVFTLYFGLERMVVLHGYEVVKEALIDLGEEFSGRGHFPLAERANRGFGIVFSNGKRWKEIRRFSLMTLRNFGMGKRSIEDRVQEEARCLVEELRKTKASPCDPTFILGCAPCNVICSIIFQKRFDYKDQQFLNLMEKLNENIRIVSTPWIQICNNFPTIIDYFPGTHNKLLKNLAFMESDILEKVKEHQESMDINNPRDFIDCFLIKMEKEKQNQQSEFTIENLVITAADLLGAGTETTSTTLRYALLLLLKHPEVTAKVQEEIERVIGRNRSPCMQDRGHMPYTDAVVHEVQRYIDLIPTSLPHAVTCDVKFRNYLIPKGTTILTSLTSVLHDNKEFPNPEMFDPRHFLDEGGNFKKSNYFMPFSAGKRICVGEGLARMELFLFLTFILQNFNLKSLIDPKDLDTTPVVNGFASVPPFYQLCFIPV

[9] = biological target: CYP2D6 (Homo sapiens (Human), UniProt P10635)
CYP2D6, sequence (P10635 whole entry): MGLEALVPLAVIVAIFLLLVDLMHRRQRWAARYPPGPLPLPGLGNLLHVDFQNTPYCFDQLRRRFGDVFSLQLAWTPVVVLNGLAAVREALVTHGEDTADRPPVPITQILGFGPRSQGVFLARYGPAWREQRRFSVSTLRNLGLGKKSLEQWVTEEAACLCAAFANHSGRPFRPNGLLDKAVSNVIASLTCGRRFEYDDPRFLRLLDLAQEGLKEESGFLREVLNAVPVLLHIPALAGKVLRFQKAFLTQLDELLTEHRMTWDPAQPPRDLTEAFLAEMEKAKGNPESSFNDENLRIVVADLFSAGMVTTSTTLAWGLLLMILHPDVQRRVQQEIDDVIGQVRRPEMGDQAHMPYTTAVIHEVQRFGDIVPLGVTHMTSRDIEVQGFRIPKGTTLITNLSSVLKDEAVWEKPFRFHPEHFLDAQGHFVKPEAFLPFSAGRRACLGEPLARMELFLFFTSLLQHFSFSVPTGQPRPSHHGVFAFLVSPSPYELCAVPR

[10] = Metabolic stability and clearance in mouse liver microsomes; assay type: in vitro ADME
Protocol: (§1) The results of metabolic stability determinations for novel compounds and testosterone (positive control) were conducted in the presence of human, rat, mouse, and monkey liver microsomes. Values shown are percent of parent remaining after a 30 minute incubation. All measurements were done in duplicate. Assay results for testosterone were within an acceptable range.
(§2) Mixed-gender human liver microsomes (Lot# 1710084), male Sprague-Dawley rat liver microsomes (Lot# 1610290), male CD-1 mouse liver microsomes (Lot# 1710069), and male Cynomolgous liver microsomes (Lot# 1510193) were purchased from XenoTech. […]. The test article was added into the reaction mixture at a final concentration of 1 μM. The control compound, testosterone, was run simultaneously with the test article in a separate reaction. An aliquot of the reaction mixture (without cofactor) was equilibrated in a shaking water bath at 37° C. for 3 minutes. The reaction was initiated by the addition of cofactor, and the mixture was incubated in a shaking water bath at 37° C. Aliquots (100 μL) were withdrawn at 0, 10, 20, 30, and 60 minutes. Test article and testosterone samples were immediately combined with 400 μL of ice-cold 50/50 acetonitrile (ACN)/H2O containing 0.1% formic acid and internal standard to terminate the reaction. […] Half-lives were calculated using GraphPad software, fitting to a single-phase exponential decay equation.

[11] = Metabolic stability and clearance in human liver microsomes; assay type: in vitro ADME
Protocol: as §1, §2

[12] = Metabolic stability and clearance in rat liver microsomes; assay type: in vitro ADME
Protocol: as §1, §2

[13] = in vivo; details: male, CD-1, mouse
[14] = Plasma protein binding, human; assay type: in vitro ADME
Excerpt: The peak areas of the test compound in the buffer and test samples were used to calculate percent binding and recovery according to the following formulas:
Areap=Peak area of analyte in protein matrix Areab=Peak area of analyte in buffer Areac=Peak area of analyte in control sample

[15] = biological target: CYP2C9 (Homo sapiens (Human), UniProt P11712); test: CYP450 inhibition assay, CYP2C9; assay type: in vitro ADME
CYP2C9, sequence (P11712 whole entry): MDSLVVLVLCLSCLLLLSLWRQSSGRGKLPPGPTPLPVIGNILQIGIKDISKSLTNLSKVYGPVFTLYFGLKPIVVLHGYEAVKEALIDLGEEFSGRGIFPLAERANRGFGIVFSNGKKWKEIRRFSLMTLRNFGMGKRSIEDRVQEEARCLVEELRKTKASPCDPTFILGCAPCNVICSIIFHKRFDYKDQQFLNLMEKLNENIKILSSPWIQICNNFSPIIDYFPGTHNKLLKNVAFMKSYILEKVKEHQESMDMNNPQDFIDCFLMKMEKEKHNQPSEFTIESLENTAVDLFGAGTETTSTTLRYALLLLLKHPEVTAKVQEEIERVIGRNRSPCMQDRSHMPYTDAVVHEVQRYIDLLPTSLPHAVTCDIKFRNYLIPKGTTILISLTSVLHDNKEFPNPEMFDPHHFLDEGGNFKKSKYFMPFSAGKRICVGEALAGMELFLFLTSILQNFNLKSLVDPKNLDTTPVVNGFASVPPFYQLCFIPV

[16] = Metabolic stability and clearance in cynomolgus monkey liver microsomes; assay type: in vitro ADME
Protocol: as §1, §2

[17] = biological target: peroxisome proliferator-activated receptor-gamma (PPARγ) receptor (Homo sapiens (Human), UniProt P37231); test: PPARγ activity
peroxisome proliferator-activated receptor-gamma (PPARγ) receptor, sequence (P37231 whole entry, species assumed): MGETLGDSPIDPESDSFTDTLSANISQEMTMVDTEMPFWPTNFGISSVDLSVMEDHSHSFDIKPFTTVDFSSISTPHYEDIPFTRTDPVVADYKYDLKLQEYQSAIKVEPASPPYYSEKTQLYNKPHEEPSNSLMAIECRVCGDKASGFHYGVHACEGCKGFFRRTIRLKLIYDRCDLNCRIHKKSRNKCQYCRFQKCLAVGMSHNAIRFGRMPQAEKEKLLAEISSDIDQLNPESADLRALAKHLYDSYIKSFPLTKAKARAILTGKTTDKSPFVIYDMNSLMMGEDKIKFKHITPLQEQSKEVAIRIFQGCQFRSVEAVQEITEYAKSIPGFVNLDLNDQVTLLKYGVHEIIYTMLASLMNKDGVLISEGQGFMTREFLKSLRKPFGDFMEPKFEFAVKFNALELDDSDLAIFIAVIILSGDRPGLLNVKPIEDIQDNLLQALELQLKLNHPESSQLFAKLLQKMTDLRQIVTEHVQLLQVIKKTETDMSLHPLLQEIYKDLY

SMILES: O=C(O)c1ccc2nc(-c3cc(Cl)cc(Cl)c3)oc2c1 [Tafamadis (3), tafamidis]
IC50 [1]: > 30000 nM | reduction of rate of cardiovascular-related hospitalizations compared to placebo [2]: 32% | reduction of risk of death compared to placebo [2]: 30% | formation of high molecular weight forms of TTR [3]: significantly inhibited

SMILES: Cc1n[nH]c(C)c1N1CCN(c2cc(C(N)=O)ccc2F)CC1 [Compound 21, 3-(4-(3,5-Dimethyl-1H-pyrazol-4-yl)piperazin-1-yl)-4-fluorobenzamide]
IC50 [1]: > 3000 nM

SMILES: Cc1n[nH]c(C)c1N1CCN(c2cc(C(=O)O)ccc2C(F)(F)F)CC1 [Compound 18e, 3-(4-(3,5-Dimethyl-1H-pyrazol-4-yl)piperazin-1-yl)-4-(trifluoromethyl)benzoic Acid]
IC50 [1]: > 3000 nM

SMILES: Cc1n[nH]c(C)c1CCCOc1cc(C(=O)O)ccc1F [AG10 (4), AG10, reference compound]
IC50 [1]: > 30000 nM

SMILES: Cc1noc(C)c1N1CCN(c2cc(C(=O)O)ccc2F)CC1 [Compound 20, 3-(4-(3,5-Dimethylisoxazol-4-yl)piperazin-1-yl)-4-fluorobenzoic Acid]
IC50 [1]: > 3000 nM

Kinetic solubility [4]: 7.0 µM
SMILES: CC/C(=C(/CC)c1ccc(O)cc1)c1ccc(O)cc1 [Diethylstilbesterol]

SMILES: Cc1n[nH]c(C)c1N1CCN(c2cc(C(=O)O)ccc2Cl)CC1 [Compound 18f, 4-Chloro-3-(4-(3,5-dimethyl-1H-pyrazol-4-yl)piperazin-1-yl)benzoic Acid]
IC50 [1]: > 3000 nM

SMILES: Cc1ccc(C(=O)O)cc1N1CCN(c2c(C)n[nH]c2C)CC1 [Compound 18d, 3-(4-(3,5-Dimethyl-1H-pyrazol-4-yl)piperazin-1-yl)-4-methylbenzoic Acid]
IC50 [1]: > 3000 nM

SMILES: COc1ccc(C(=O)O)cc1N1CCN(c2c(C)n[nH]c2C)CC1 [Compound 18c, 3-(4-(3,5-Dimethyl-1H-pyrazol-4-yl)piperazin-1-yl)-4-methoxybenzoic Acid]
IC50 [1]: > 3000 nM | IC50 [5]: 300 nM

SMILES: Cc1n[nH]c(C)c1N1CCN(c2cccc(C(=O)O)c2F)CC1 [Compound 18g, 3-(4-(3,5-Dimethyl-1H-pyrazol-4-yl)piperazin-1-yl)-2-fluorobenzoic Acid]
IC50 [1]: > 3000 nM

SMILES: Cc1n[nH]c(C)c1N1CCN(c2ccc(F)c(C(=O)O)c2)CC1 [Compound 18h, 5-(4-(3,5-Dimethyl-1H-pyrazol-4-yl)piperazin-1-yl)-2-fluorobenzoic Acid]
IC50 [1]: > 3000 nM

SMILES: CC(=O)N1CCN(c2ccc(OCC3COC(Cn4ccnc4)(c4ccc(Cl)cc4Cl)O3)cc2)CC1 (stereo not shown) [Ketoconazole]
Kinetic solubility [4]: 152.8 µM

SMILES: Cc1n[nH]c(C)c1N1CCN(c2cc(-c3nn[nH]n3)ccc2F)CC1 [Compound 22, 1-(3,5-Dimethyl-1H-pyrazol-4-yl)-4-(2-fluoro-5-(2H-tetrazol-5-yl)phenyl)piperazine]
IC50 [1]: > 3000 nM

SMILES: Cc1n[nH]c(C)c1N1CCN(c2cc(C(=O)O)ccc2F)CC1 [Compound 18a, 3-(4-(3,5-Dimethyl-1H-pyrazol-4-yl)piperazin-1-yl)-4-fluorobenzoic Acid]
effect on serum TTR levels ([6]; after compound dosing, data not shown): no effect | maximal reduction in serum RBP4 ([6]; single 25 mg/kg oral dose, 2 h after administration): 66% | AUCINF ([7]; IV 2 mg/kg): 6242 ng·h/mL | AUClast ([7]; IV 2 mg/kg): 6214 ng·h/mL | CL, total body clearance ([7]; IV 2 mg/kg): 5.9 mL/min/kg | Vss ([7]; IV 2 mg/kg): 2.18 L/kg | t1/2 ([7]; IV 2 mg/kg): 5.08 h | % F, oral bioavailability ([7]; PO 5 mg/kg vs IV 2 mg/kg): 103% | AUCINF ([7]; PO 5 mg/kg): 16073 ng·h/mL | AUClast ([7]; PO 5 mg/kg): 16040 ng·h/mL | t1/2 ([7]; PO 5 mg/kg): 5.38 h | inhibition at 10 µM [8]: 3.1% | CYP Inhibition (% Inhibition at 10 μm) 2D6 [9]: 2D6 - 8.1% | Kinetic solubility [4]: 184.5 µM | Liver Microsomal Stability (% remaining at 30 min) MLM ([10]; 30 minute incubation): 102% | microsomal CLint at 1 μM ([10]; male, CD-1, mouse liver microsomes): < 0.0231 µL/min/mg | Liver Microsomal Stability (% remaining at 30 min) HLM ([11]; 30 minute incubation): 93% | microsomal CLint at 1 μM ([11]; both sexes, human liver microsomes): < 0.0231 µL/min/mg | Liver Microsomal Stability (% remaining at 30 min) RLM ([12]; 30 minute incubation): 98% | microsomal CLint at 1 μM ([12]; male, Sprague-Dawley, rat liver microsomes): < 0.0231 µL/min/mg | clearance ([13]; iv, 2 mg/kg): 5.9 mL/min/kg | half-life ([13]; iv, 2 mg/kg): 5.08 h | AUC(0-inf) ([13]; po, 5 mg/kg): 16100 ng·h/mL | Cmax ([13]; po, 5 mg/kg): 1560 ng/mL | % PPB human [14]: 83% | CYP Inhibition (% Inhibition at 10 μm) 2C9 [15]: 2C9 - 10.4% | Liver Microsomal Stability (% remaining at 30 min) cyno LM ([16]; 30 minute incubation): 94% | microsomal CLint at 1 μM ([16]; male, cynomolgus monkey liver microsomes, read-out: Microsomal CLint, cyno): < 0.0231 µL/min/mg | EC50 [17]: > 100000 nM

SMILES: Cc1cc(F)c(N2CCN(c3c(C)n[nH]c3C)CC2)cc1C(=O)O [Compound 18j, 5-(4-(3,5-Dimethyl-1H-pyrazol-4-yl)piperazin-1-yl)-4-fluoro-2-methylbenzoic Acid]
IC50 [1]: > 3000 nM

SMILES: Cc1n[nH]c(C)c1N1CCN(c2cccc(C(=O)O)c2)CC1 [Compound 18b, 3-(4-(3,5-Dimethyl-1H-pyrazol-4-yl)piperazin-1-yl)benzoic Acid]
IC50 [1]: > 30000 nM

SMILES: Cc1n[nH]c(C)c1N1CCN(c2cc(F)cc(C(=O)O)c2)CC1 [Compound 18i, 3-(4-(3,5-Dimethyl-1H-pyrazol-4-yl)piperazin-1-yl)-5-fluorobenzoic Acid]
IC50 [1]: > 3000 nM
